Experimental data as given in ChEMBL document CHEMBL3885881, “DrugMatrix”.
Values joined by “and” are separate entries in the source; they are usually repeats but may differ in a detail not shown here. Identical values can stand only once.

Organism: Rattus norvegicus
Test: DrugMatrix - Regimen: Daily Repeat
Format: toxicity, organism-based, Sprague-Dawley
Parameters: regimen Daily Repeat, gender Male, age 6-8 weeks
Details: in vivo, ip, 0 mg/kg, route intraperitoneal, dose level Control, vehicle 100 % SALINE; for ABSOLUTE BASOPHIL / ABSOLUTE EOSINOPHIL / ABSOLUTE LYMPHOCYTE / ABSOLUTE MONOCYTE / BASOPHIL / EOSINOPHIL / ERYTHROCYTE COUNT / HEMATOCRIT / HEMOGLOBIN / LEUKOCYTE COUNT / LYMPHOCYTE / MEAN CORPUSCULAR HEMOGLOBIN / MEAN CORPUSCULAR HEMOGLOBIN CONCENTRATION / MEAN CORPUSCULAR VOLUME / MONOCYTE / NEUTROPHIL / PLATELET COUNT: tissue Blood
[1] = 120 h, tissue Plasma, time 5 day
[2] = […], tissue Plasma, time 14 day
[3] = […], tissue Plasma, time 28 day

## CISPLATIN
120 h, time 5 day
  ABSOLUTE BASOPHIL: 32 cells/µL
  ABSOLUTE EOSINOPHIL: 110 cells/µL
  ABSOLUTE LYMPHOCYTE: 6630 cells/µL
  ABSOLUTE MONOCYTE: 140 cells/µL
  BASOPHIL: 0.38% and 0.35%
  EOSINOPHIL: 1.28% and 0.62%
  ERYTHROCYTE COUNT: 7.45 x10E6/uL and 7.26 x10E6/uL
  HEMATOCRIT: 45.74% and 47.97%
  HEMOGLOBIN: 14.72 G/DL and 15.38 G/DL
  LEUKOCYTE COUNT: 8.11 x10E3/uL and 8.68 x10E3/uL
  LYMPHOCYTE: 81.3% and 86.77%
  MEAN CORPUSCULAR HEMOGLOBIN: 19.76 pg and 21.18 pg
  MEAN CORPUSCULAR HEMOGLOBIN CONCENTRATION: 32.16 G/DL and 32.05 G/DL
  MEAN CORPUSCULAR VOLUME: 61.38 fL and 66.15 fL
  MONOCYTE: 1.76% and 1.57%
  NEUTROPHIL: 14.9% and 9.53%
  PLATELET COUNT: 1322.4 x10E3/uL and 1786 x10E3/uL
[1]
  ALANINE AMINOTRANSFERASE: 25.8 u/L and 20.5 u/L
  ALBUMIN: 3.64 G/DL and 4.35 G/DL
  ALKALINE PHOSPHATASE: 300 u/L
  ASPARTATE AMINOTRANSFERASE: 81.4 u/L and 86.75 u/L
  BLOOD UREA NITROGEN: 14.4 mg/dL and 17 mg/dL
  CARBON DIOXIDE: 29 mmol/L
  CHOLESTEROL: 69.2 mg/dL and 51.25 mg/dL
  CREATININE: 0.56 mg/dL and 0.47 mg/dL
  GLUCOSE: 125.4 mg/dL and 128.75 mg/dL
  LACTATE DEHYDROGENASE: 105.4 u/L and 145 u/L
  LIPASE: 22.4 u/L and 13.25 u/L
  PHOSPHORUS: 11.8 mg/dL
  POTASSIUM: 5.52 MEQ/L and 6.58 MEQ/L
  SODIUM: 147 MEQ/L and 151 MEQ/L
  TOTAL BILIRUBIN: 0.2 mg/dL and 0.33 mg/dL
  URIC ACID: 1.06 mg/dL and 1.95 mg/dL
[…], time 14 day
  ABSOLUTE BASOPHIL: 130 cells/µL
  ABSOLUTE EOSINOPHIL: 140 cells/µL
  ABSOLUTE LYMPHOCYTE: 13500 cells/µL
  ABSOLUTE MONOCYTE: 400 cells/µL
  HEMATOCRIT: 45.98%
  HEMOGLOBIN: 15.17 G/DL
  MEAN CORPUSCULAR VOLUME: 59.4 fL
  NEUTROPHIL: 14.14%
[…], time 28 day
  ABSOLUTE BASOPHIL: 91 cells/µL
  ABSOLUTE EOSINOPHIL: 110 cells/µL
  ABSOLUTE LYMPHOCYTE: 9910 cells/µL
  ABSOLUTE MONOCYTE: 210 cells/µL
  BASOPHIL: 0.77%
  EOSINOPHIL: 0.92%
  ERYTHROCYTE COUNT: 8.21 x10E6/uL
  HEMATOCRIT: 47.53%
  HEMOGLOBIN: 15.65 G/DL
  LEUKOCYTE COUNT: 11.91 x10E3/uL
  LYMPHOCYTE: 83.34%
  MEAN CORPUSCULAR HEMOGLOBIN: 19.07 pg
  MEAN CORPUSCULAR HEMOGLOBIN CONCENTRATION: 32.93 G/DL
  MEAN CORPUSCULAR VOLUME: 57.9 fL
  MONOCYTE: 1.68%
  NEUTROPHIL: 12.97%
  PLATELET COUNT: 1323.8 x10E3/uL
[2]
  ALBUMIN: 3.66 G/DL
  CARBON DIOXIDE: 25 mmol/L
  CHLORIDE: 107 MEQ/L
  SODIUM: 149.2 MEQ/L
  URIC ACID: 0.94 mg/dL
[3]
  ALANINE AMINOTRANSFERASE: 30 u/L
  ALBUMIN: 3.71 G/DL
  ALKALINE PHOSPHATASE: 186.8 u/L
  ASPARTATE AMINOTRANSFERASE: 78.2 u/L
  BLOOD UREA NITROGEN: 14.2 mg/dL
